The record followed here is article PMC11421834 (European journal of medicinal chemistry, 2024).

Assay [1] addresses TRKC (Homo sapiens, UniProt Q16288). The assay is described as follows: TRKC enzyme assay, single concentration. Conditions: Percentage inhibition at 0.5 μM (n = 2); ATP 10 μM.
Assay [2] deals with over 400 kinases. The assay is described as follows: KinomeSCAN kinome profiling at 1 μM. It is filed as binding. Conditions: for >90: Number of kinases inhibited above 90%: KinomeSCAN at 1 μM across over 400 kinases.
Assay [3] concerns the target T1, FLT3 (Homo sapiens, UniProt P36888).
T1 sequence (P36888 27-993): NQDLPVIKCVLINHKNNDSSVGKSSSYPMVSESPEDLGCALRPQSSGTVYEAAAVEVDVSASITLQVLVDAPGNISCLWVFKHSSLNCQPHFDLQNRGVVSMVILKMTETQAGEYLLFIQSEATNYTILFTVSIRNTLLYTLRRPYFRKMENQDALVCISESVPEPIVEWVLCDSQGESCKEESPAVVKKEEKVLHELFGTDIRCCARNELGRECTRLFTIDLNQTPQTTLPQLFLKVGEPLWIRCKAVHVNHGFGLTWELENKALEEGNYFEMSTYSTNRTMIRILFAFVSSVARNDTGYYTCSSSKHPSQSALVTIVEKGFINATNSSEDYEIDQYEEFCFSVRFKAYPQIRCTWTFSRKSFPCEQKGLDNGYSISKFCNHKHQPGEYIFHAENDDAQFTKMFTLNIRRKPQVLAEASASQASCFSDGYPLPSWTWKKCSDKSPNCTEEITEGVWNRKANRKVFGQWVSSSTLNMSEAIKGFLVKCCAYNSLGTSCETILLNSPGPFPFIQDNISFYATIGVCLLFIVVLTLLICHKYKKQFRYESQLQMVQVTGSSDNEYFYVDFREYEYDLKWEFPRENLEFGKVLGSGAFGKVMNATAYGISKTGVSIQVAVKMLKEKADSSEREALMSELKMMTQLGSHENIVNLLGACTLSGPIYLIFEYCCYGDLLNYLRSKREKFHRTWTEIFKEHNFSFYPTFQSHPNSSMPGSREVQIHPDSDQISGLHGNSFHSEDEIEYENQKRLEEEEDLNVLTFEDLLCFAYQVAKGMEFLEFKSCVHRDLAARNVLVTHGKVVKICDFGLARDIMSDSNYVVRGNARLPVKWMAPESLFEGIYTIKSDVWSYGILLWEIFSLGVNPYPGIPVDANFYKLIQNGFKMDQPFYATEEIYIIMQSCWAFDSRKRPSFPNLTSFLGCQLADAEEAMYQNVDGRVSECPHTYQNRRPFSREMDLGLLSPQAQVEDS
The assay is described as follows: FLT3 enzyme assay, single concentration. The conditions noted are these: read-out: FLT3 (% Inh.).

Chain of TRKC (Q16288 32-839): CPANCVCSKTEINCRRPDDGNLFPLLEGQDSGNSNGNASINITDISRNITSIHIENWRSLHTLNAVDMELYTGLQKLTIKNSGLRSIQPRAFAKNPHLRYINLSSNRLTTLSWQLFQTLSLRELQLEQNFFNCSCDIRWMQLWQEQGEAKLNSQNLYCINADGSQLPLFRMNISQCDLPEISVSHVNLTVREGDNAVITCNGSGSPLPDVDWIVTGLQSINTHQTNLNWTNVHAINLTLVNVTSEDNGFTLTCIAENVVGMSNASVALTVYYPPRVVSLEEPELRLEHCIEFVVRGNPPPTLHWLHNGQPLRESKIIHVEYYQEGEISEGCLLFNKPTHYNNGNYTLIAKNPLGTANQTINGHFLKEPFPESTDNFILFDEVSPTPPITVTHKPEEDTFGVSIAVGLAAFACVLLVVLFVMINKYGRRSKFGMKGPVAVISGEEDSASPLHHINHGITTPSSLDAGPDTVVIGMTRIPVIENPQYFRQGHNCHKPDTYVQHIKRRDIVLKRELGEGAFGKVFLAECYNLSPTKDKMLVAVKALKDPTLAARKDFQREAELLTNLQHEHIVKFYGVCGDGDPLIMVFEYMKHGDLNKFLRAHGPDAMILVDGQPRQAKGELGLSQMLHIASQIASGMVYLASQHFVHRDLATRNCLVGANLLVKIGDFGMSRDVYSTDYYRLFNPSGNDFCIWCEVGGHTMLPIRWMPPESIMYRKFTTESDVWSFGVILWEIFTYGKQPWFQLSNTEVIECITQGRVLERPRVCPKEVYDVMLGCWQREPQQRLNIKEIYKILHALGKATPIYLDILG

With “3-ethoxy-N-[(3Z)-3-[(1H-imidazole-5-yl)methylidene]-2-oxo-2,3-dihydro-1H-indol-5-yl]thiophene-2-carboxamide [Compound 120]”, the “TRKC (% Inh.)” value in assay [1] is on record as 92%.
On to `COc1ccc2c(c1)/C(=C/c1cnc[nH]1)C(=O)N2` [Compound 1, (3Z)-3-[(1H-imidazole-5-yl)methylidene]-5-methoxy-2,3-dihydro-1H-indol-2-one], for which, in assay [2], the “>90: Number of kinases inhibited above 90%” value amounted to 15.
In the case of `CC(=O)c1ccc2c(c1)/C(=C/c1ccc[nH]1)C(=O)N2` [Compound 27, (3Z)-5-acetyl-3-(1H-pyrrol-2-ylmethylidene)-2,3-dihydro-1H-indol-2-one], the “>90: Number of kinases inhibited above 90%” value in assay [2] came to 62. Besides, the “S(10)” value in assay [2] (KinomeSCAN at 1 μM, selectivity score) was 0.154.
In the case of `O=C1Nc2ccc(C(=O)c3ccccc3)cc2/C1=C/c1cnc[nH]1` [Compound 44, (3Z)-5-benzoyl-3-(1H-imidazole-5-ylmethylidene)-2,3-dihydro-1H-indol-2-one], the “>90: Number of kinases inhibited above 90%” value in assay [2] was found to be 15.
For `O=C1Nc2ccc(NC(=O)c3ccccc3)cc2/C1=C/c1ccc[nH]1` [Compound 72, N-[(3Z)-2-oxo-3-(1H-pyrrol-2-ylmethylidene)-2,3-dihydro-1H-indol-5-yl]benzamide], in assay [2], the “>90: Number of kinases inhibited above 90%” value was determined as 10.
Still for that read-out and setting: for `O=C1Nc2ccc(NC(=O)c3ccccc3)cc2/C1=C/c1cnc[nH]1` [Compound 73, N-[(3Z)-3-(1H-imidazole-5-ylmethylidene)-2-oxo-2,3-dihydro-1H-indol-5-yl]benzamide] the value was 9; for `O=C1Nc2ccc(NC(=O)c3ccccc3)cc2/C1=C/c1ncc[nH]1` [Compound 74, N-[(3Z)-3-(1H-imidazole-2-ylmethylidene)-2-oxo-2,3-dihydro-1H-indol-5-yl]benzamide], 11.
`COc1ccccc1C(=O)Nc1ccc2c(c1)/C(=C/c1ncc[nH]1)C(=O)N2` [Compound 97, N-[(3Z)-3-(1H-imidazole-2-ylmethylidene)-2-oxo-2,3-dihydro-1H-indol-5-yl]-2-methoxybenzamide]: the “>90: Number of kinases inhibited above 90%” value in assay [2] was 7.
On to `O=C1Cc2cc(NC(=O)c3cc4sccc4s3)ccc2N1` [Compound 111], for which the “>90: Number of kinases inhibited above 90%” value in assay [2] was found to be 15.
Regarding `COc1ccsc1C(=O)Nc1ccc2c(c1)/C(=C/c1cnc[nH]1)C(=O)N2` [Compound 119, (Z)-N-(3-((1H-imidazole-5-yl)methylene)-2-oxoindolin-5-yl)-3-methoxythiophene-2-carboxamide], the inhibition at 0.5 µM in assay [3] was determined as 80%.
`Cc1nc[nH]c1/C=C1\C(=O)Nc2ccc(NC(=O)c3ccccc3)cc21` [Compound 128, N-[(3Z)-3-[(4-methyl-1H-imidazole-5-yl)methylidene]-2-oxo-2,3-dihydro-1H-indol-5-yl]benzamide]: in assay [2], the “>90: Number of kinases inhibited above 90%” value is on record as 11.
With “(3Z)-3-(1H-pyrazol-5-ylmethylidene)-2,3-dihydro-1H-indol-2-one [Compound 8]”, in assay [1], the “TRKC (% Inh.)” value is reported as 92%.
